ChEMBL document CHEMBL1136167, “Prediction of hERG potassium channel affinity by traditional and hologram qSAR methods” (Bioorg Med Chem Lett, 2003)

biological target: T1, Voltage-gated inwardly rectifying potassium channel KCNH2 (Homo sapiens, UniProt Q12809); test: Inhibition of human Potassium channel HERG expressed in mammalian cells; settings: not given
T1 sequence (Q12809 whole entry): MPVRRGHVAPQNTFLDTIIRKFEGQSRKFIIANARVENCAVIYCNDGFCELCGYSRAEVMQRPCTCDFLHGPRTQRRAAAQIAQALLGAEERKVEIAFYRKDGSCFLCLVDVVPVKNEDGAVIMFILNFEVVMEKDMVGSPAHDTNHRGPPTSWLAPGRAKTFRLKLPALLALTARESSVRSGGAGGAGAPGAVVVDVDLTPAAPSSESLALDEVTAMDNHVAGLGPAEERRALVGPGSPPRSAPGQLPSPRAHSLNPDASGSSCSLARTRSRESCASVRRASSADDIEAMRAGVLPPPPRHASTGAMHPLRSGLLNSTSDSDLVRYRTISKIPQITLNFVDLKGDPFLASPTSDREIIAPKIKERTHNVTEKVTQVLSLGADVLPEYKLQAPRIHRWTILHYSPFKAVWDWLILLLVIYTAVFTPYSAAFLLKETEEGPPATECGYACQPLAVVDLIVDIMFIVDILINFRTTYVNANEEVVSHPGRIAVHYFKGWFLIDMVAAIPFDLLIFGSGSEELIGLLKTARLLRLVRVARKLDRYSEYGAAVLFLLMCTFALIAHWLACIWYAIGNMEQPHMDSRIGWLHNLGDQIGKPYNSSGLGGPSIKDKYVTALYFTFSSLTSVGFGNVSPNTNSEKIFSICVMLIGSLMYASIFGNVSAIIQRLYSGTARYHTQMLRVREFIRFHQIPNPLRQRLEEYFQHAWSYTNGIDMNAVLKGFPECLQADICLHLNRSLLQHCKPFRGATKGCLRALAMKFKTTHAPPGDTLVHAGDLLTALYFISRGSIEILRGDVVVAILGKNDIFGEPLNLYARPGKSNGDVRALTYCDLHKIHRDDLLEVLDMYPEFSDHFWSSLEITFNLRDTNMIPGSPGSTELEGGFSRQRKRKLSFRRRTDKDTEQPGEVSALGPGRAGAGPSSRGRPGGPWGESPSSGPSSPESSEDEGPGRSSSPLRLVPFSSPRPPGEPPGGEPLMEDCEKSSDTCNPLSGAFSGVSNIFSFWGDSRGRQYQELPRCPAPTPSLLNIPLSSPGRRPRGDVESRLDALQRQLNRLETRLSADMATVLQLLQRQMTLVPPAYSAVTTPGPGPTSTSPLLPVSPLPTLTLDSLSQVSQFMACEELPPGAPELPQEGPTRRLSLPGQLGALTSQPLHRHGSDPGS

Compound	IC50 [µM]
Cc1cc2c(s1)Nc1ccccc1N=C2N1CCN(C)CC1 [OLANZAPINE]	0.182
COc1ccc(C(=O)N2CCN(c3ccc4c(c3)CCC(=O)N4)CC2)cc1OC [VESNARINONE]	1.1
CN(c1nccc(=O)[nH]1)C1CCN(c2nc3ccccc3n2Cc2ccc(F)cc2)CC1 [MIZOLASTINE]	0.437
O=C(O[C@H]1C[C@@H]2C[C@@H]3C[C@@H](C1)N2CC3=O)C1CNc2ccccc21 (some centres undefined)	5.89
CCOC(=O)C1=C(C)NC(C)=C(C(=O)OC)C1c1cccc([N+](=O)[O-])c1 (centres undefined) [NITRENDIPINE]	10
COc1ccc(C2CCN(CC[C@H]3CCOc4ccccc43)CC2)cc1OC [TERIKALANT]	0.251
C[C@@H]1CN(c2c(F)c(N)c3c(=O)c(C(=O)O)cn(C4CC4)c3c2F)C[C@H](C)N1 [SPARFLOXACIN]	18.2
COc1c(N2CCNC(C)C2)c(F)cc2c(=O)c(C(=O)O)cn(C3CC3)c12 (centres undefined) [GATIFLOXACIN]	129
Oc1ccc(CCN2CCC(Nc3nc4ccccc4n3Cc3ccc(F)cc3)CC2)cc1 [DESMETHEYLASTEMIZOLE]	0.001
COc1ccc(C2CCN(CCC3CCOc4ccccc43)CC2)cc1OC (centres undefined)	0.2
CC[C@H]1OC(=O)[C@H](C)[C@@H](O[C@H]2C[C@@](C)(OC)[C@@H](O)[C@H](C)O2)[C@H](C)[C@@H](O[C@@H]2O[C@H](C)C[C@H](N(C)C)[C@H]2O)[C@](C)(OC)C[C@@H](C)C(=O)[C@H](C)[C@@H](O)[C@]1(C)O [CLARITHROMYCIN]	58.9
CN1CCC[C@H]1c1cccnc1 [NICOTINE]	245

same assay, conditions: human

Compound	pIC50
Cc1c(F)c(N2CCNC(C)C2)cc2c1c(=O)c(C(=O)O)cn2C1CC1 (centres undefined) [GREPAFLOXACIN]	[…]

biological target: T1, Voltage-gated inwardly rectifying potassium channel KCNH2; test: Inhibition of K+ channel activity in mammalian cells expressing HERG Kv11.1; format: cell-based; settings: not given

Compound	IC50 [µM]
CC[C@H]1OC(=O)[C@H](C)[C@@H](O[C@H]2C[C@@](C)(OC)[C@@H](O)[C@H](C)O2)[C@H](C)[C@@H](O[C@@H]2O[C@H](C)C[C@H](N(C)C)[C@H]2O)[C@](C)(OC)C[C@@H](C)C(=O)[C@H](C)[C@@H](O)[C@]1(C)O [CLARITHROMYCIN]	33.1
